The values that follow come from article PMC5320518, “Novel Liver-targeted conjugates of Glycogen Phosphorylase Inhibitor PSN-357 for the Treatment of Diabetes: Design, Synthesis, Pharmacokinetic and Pharmacological Evaluations” (Scientific Reports, 2017).

A short description of data set [1]: Stability in mouse liver microsomes (MLM). Format: in vitro ADME. As to conditions: for CLint scaled at 10 μM / half-life at 10 μM / microsomal CLint at 10 μM: C57BL/6, pH 7.4, n = 3.
A short description of data set [2]: Stability in mouse plasma. Format: in vitro ADME. As to conditions: 2 μM, 37 °C, 120-min test. The procedure: Frozen plasma from male C57 BL/6 mice was incubated for 5 min at 37 °C before the addition of the test compound. Then prepared 2 μM incubation sample, and aliquots of the incubation mixtures (100 μL) were taken at predetermined time points (10, 30, 60, 120 min) at 37 °C. After incubation, the mixtures was added 400 μL of 50% ACN/50% MeOH containing internal standard (IS, 200 ng/mL Tolbutamide and 20 ng/mL Buspirone) to each sample tube and then centrifuged at 13000 rpm for 8 min. Blank incubations in the absence of the test compound were also performed. The analyses of test compounds were performed by LC-MS/MS analysis.

The subject of data set [3] is leptin-deficient ob/ob mice. Put plainly: Glucose lowering in vivo in diabetic ob/ob mice. The note with it: 50 mg/kg p.o.; for hypoglycemic effect (in words): 0-24 h. The procedure:
In vivo efficacy of compound PSN-357 and conjugate 6 were studied on leptin-deficient ob/ob mice. Metformin was chosen as a positive control. […] Especially, there was still significant decrease in BG levels by conjugate 6 up to 6 h after administration. The effect might be due to the fact that 6 acts in a sustained release and longer acting manners. It is noteworthy that the findings are highly consistent with the results from in vivo pharmacokinetic studies.
Five- to six-week old obese, diabetic ob/ob mice (male C57BL/6 J) and their lean, nondiabetic male C57BL/6 J littermates were provided by the Model Animal Research Center of Nanjing University, and housed under standard animal care practices with ad libitum access to food and water throughout the procedures. After 1 week acclimation, blood was collected from the retroorbital sinus for plasma glucose determination, and mice were randomized to groups with similar mean ± SD. Mice were then dosed p.o. daily for 4 days with vehicle consisting of DMSO/PEG400/H-β-CD (1:3:6, v/v/v). On day 5, mice were treated p.o. with PSN-357 (50 mg/kg) or conjugate 6 (50 mg/kg) or vehicle, then bled at 0, 1, 2, 3, 6 and 24 h post-dose for plasma glucose determination. Statistical analysis of the hypoglycemic effect was determined by unpaired t test with the ob/ob mice vehicle treated group.

For another data set, the system named is HepG2 cells. Put plainly: Glycogenolysis inhibition in HepG2 cells. Format: cell-based, human. As to conditions: HepG2 cells, 60-min incubation with 0.3 nM glucagon, mean ± S.D. of three, NI means no inhibition, read-out: IC50 (glycogenolysis inhibition, HepG2 cells). The text has this: To evaluate the effects of all compounds in cells, the glycogenolysis assays were established in both rat and human liver cells based on the published method. […] The inhibitory activities of the derivatives of PSN-357 (e.g. 25–28) were also explored. It is not surprising that the derivatives still retained micromolar inhibitory activities. Introduction of steric bulks to the hydroxyl group (e.g. 33, 40, 42, 48) led to a complete loss of activity. Data analysis indicated no clear SAR for the substitutents in the cell-based assays.
The inhibition of hepatic glycogenolysis was monitored by the measurement of liver glycogen, which was done quantitatively by the anthrone reagent (Sigma) colorimetric method based on the published method. Isolated rat hepatocytes or HepG2 cells (Sigma) were treated with the test compound or DMSO solvent (final concentration, 0.10%), followed by 60-min incubation with 0.3 nM glucagon (GGN). Assays were terminated by centrifugation, and cells were digested with 30% KOH followed by glycogen determination. The IC50 values were estimated by fitting the inhibition data to a dose-dependent curve using a logistic derivative equation.

A short description of data set [4]: Biodistribution and pharmacokinetics in plasma and liver after intravenous administration in mice. Format: in vivo. As to conditions: 5 mg/kg intravenous; for AUC(0-t) / Cmax: iv. The protocol:
Based on the results of the potency and in vitro stability studies, conjugate 6 was selected for in vivo pharmacokinetic analysis following a single intravenous injection of 5 mg/kg in male C57 BL/6. Doses of PSN-357 intravenous were used as standard regimens for comparison.
Male C57 BL/6 mice (18–20 g, 5–6 weeks old) were provided by the Laboratory Animal Center of Academy of Military Medical Science of People’s Liberation Army, and were reared in standard rodent cages in animal house of Chengde Medical University, under the condition of a constant temperature of 24 °C (±2 °C) and a 12 h light/dark cycle. PSN-357 and conjugate 6 were injected through the caudal vein. For each sampling time point, three mice were treated with a single dose of either PSN-357 or conjugate 6 at 5 mg/kg in 10% DMSO/saline solutions. Blood and liver samples were taken at 0.0833, 0.25, 0.5, 1, 2, 4, 6 and 24 h following intravenous administration, and stored at −80 °C until analysis. Aliquots of all biological matrixes were deproteinized with a mixture of methanol/acetonitrile (1:1). The suspension was vortexed, mixed, and centrifuged at 13000 rpm for 10 min. The organic phase was injected into the LC-MS/MS system. PK calculations and statistical comparisons on PK data were performed according to a non-compartmental kinetic model with validated software (Kinetica™ version 5.1, Thermo Electron Corporation, USA).

[5] abbreviates: male, C57 BL/6, mouse, liver tissue, read-out: MRT0-t, liver.
Setting [6] is: male, C57 BL/6, mouse, liver, 5 mg/kg, liver tissue, read-out: AUC0-t, liver.
Where [7] appears, read: male, C57 BL/6, mouse, plasma, read-out: MRT0-t, plasma.
Where [8] appears, read: male, C57 BL/6, mouse, plasma, 5 mg/kg.
Setting [9] is: male, C57 BL/6, mouse, plasma, 5 mg/kg, plasma, read-out: AUC0-t, plasma.

Where two headings read alike, the source gives them in different places.

Broadly, the CLint scaled is a measure of how fast metabolising enzymes remove a compound, apart from limits set by blood flow. High values mean faster metabolism, low ones greater metabolic stability. In general, half-life refers to the time in which the quantity being followed falls by half. The term microsomal CLint denotes the rate of metabolic loss divided by the concentration. A higher microsomal CLint goes with rapid turnover. As a reminder, the IC50 is the concentration that inhibits the measured activity by half. The term Cmax denotes the maximum level reached in the sampled fluid or tissue. Regarding `O=C(N[C@@H](Cc1ccc(F)cc1)C(=O)N1CCC(O)CC1)c1cc2cc(Cl)ncc2[nH]1` [PSN-357], in data set [1], the “metabolic stability in MLM (in words)” value is reported as “good metabolic stability”, the CLint scaled at 10 μM is < 38 mL/min/kg, the half-life at 10 μM was > 2.42 h and the microsomal CLint at 10 μM was < 9.6 µL/min/mg. In addition, in data set [2], the “stability in mouse plasma (in words)” value was “relatively stable”. Also, the “hypoglycemic effect (in words)” value in data set [3] (n = 10) is reported as “significantly reduc the blood glucose”. In data set [3] (at 1 h, p < 0.005 vs control ob/ob mice), this compound returned a blood glucose (BG) nadir of 6.36 ± 1.46 mM. In the data set with HepG2 cells (Homo sapiens, HepG2, 1 h), the half-inhibitory concentration (IC50) was 3.1 ± 0.37 µM. The “Cmax, liver” value in data set [4] (liver tissue) worked out at 6677.85 ng/mL. Further, the “AUC0-t, liver” value in data set [4] (liver tissue, 5 mg/kg) was 9711.94 ng·h/mL. Also, the Kp in data set [4] (male, C57 BL/6, mouse, liver and plasma, read-out: AUCliver/AUCplasma ratio) stood at 10.1. Further, the MRT last in data set [4] (setting [5]) was determined as 4.52 h. The AUC(0-t) in data set [4] (setting [6]) was determined as 9710 ng·h/mL. The MRT last in data set [4] (setting [7]) turned out to be 3.18 h. The compound also returned a Cmax in data set [4] (setting [8]) of 628 ng/mL. Moreover, the AUC(0-t) in data set [4] (setting [9]) came to 965 ng·h/mL. Also, in data set [4] (plasma, 5 mg/kg), the “AUC0-t, plasma” value worked out at 965.16 ng·h/mL and the “Cmax, plasma” value worked out at 628.35 ng/mL. For the same compound, the “time of secondary peak in plasma” value in data set [4] (plasma, perhaps due to enterohepatic circulation) is reported as 60 min.
`C[C@H](CCC(=O)N[C@@H](CC(=O)O)C(=O)OC1CCN(C(=O)[C@H](Cc2ccc(F)cc2)NC(=O)c2cc3cc(Cl)ncc3[nH]2)CC1)[C@H]1CC[C@H]2[C@@H]3[C@H](O)C[C@@H]4C[C@H](O)CC[C@]4(C)[C@H]3C[C@H](O)[C@]12C` [Conjugate 6]: in data set [1], the “metabolic stability in MLM (in words)” value is reported as “considerable metabolic stability”, the CLint scaled at 10 μM stood at 64.9 mL/min/kg, the half-life at 10 μM is 1.41 h and the microsomal CLint at 10 μM was 16.4 µL/min/mg. For the same compound, the “degradation in mouse plasma” value in data set [2] was ~12%. Further, the “hypoglycemic effect (in words)” value in data set [3] (n = 10, 50 mg/kg) is given as “small but significant hypoglycemic effects”. The “BG level at largest drop” value in data set [3] (at 3 h, p < 0.005) is “around 7.79 mmol/L”. Further, the IC50 in the data set with HepG2 cells was 6.12 ± 1.38 µM. For the same compound, the IC50 in the data set on HepG2 cells (Homo sapiens, HepG2, 1 h) is 6.1 µM. Further, in data set [4] (liver tissue), the “Cmax, liver” value turned out to be 3094.55 ng/mL. Besides, the MRT last in data set [4] (setting [5]) was 4.42 h. In addition, the AUC(0-t) in data set [4] (setting [6]) was 3980 ng·h/mL. The MRT last in data set [4] (setting [7]) is 7.52 h. In addition, the concentration at 240 min in data set [4] (male, C57 BL/6, mouse, plasma, 240 min, read-out: plasma concentration at 240 min after dosing) came out at 97 ng/mL. In data set [4] (setting [8]), this compound returned a peak concentration (Cmax) of 726 ng/mL. Also, the AUC(0-t) in data set [4] (setting [9]) was 1520 ng·h/mL. Besides, in data set [4] (plasma, 5 mg/kg), the “Cmax, plasma” value was found to be 726.2 ng/mL.
